Experimental data reported in ChEMBL document CHEMBL3044688, “Degradation of the Herbicides Thiobencarb, Butachlor and Molinate by a Newly Isolated Aspergillus niger” (J Pestic Sci, 2004).

Columns and labels:
Type in all cases: ADME, organism-based
[1] = tested on: Aspergillus niger; test: Drug degradation in Aspergillus niger van Tieghem grown on sucrose-containing Czapek-Dox medium at 100 ppm after 7 days; conditions: 168 h
[2] = tested on: Aspergillus niger; test: Drug degradation in Aspergillus niger van Tieghem grown on sucrose-containing Czapek-Dox medium at 20 ppm after 7 days; conditions: 168 h
[3] = tested on: Aspergillus niger; test: Drug degradation in Aspergillus niger van Tieghem grown on Czapek-Dox medium at 20 ppm after 36 hr at 30 degC in presence of 0.01 g/l NaNO3
[4] = tested on: Aspergillus niger; test: Drug degradation in Aspergillus niger van Tieghem grown on Czapek-Dox medium at 20 ppm after 36 hr at 30 degC in presence of 1 g/l NaNO3
[5] = tested on: Aspergillus niger; test: Drug degradation in Aspergillus niger van Tieghem at 20 ppm after 36 hr at 30 degC
[6] = tested on: Aspergillus niger; test: Drug degradation in Aspergillus niger van Tieghem grown on Czapek-Dox medium at 20 ppm after 36 hr at 30 degC in presence of 0.5 to 2 g/l NaNO3

CCNc1nc(NC(C)C)nc(SC)n1 [AMETRYNE]
Stability [1]: Stable

CCCCOCN(C(=O)CCl)c1c(CC)cccc1CC [BUTACHLOR]
Stability [2]: Unstable

CCSC(=O)N1C=CC=CC=C1 [S-ETHYLAZEPINE-1-CARBOTHIOATE]
Stability [1]: Unstable

CCN(CC)C(=O)SCc1ccc(Cl)cc1 [THIOBENCARB]
Stability [3]: Unstable
Stability [4]: Unstable
Stability [5]: Unstable
Stability [6]: Unstable
